Experimental data from patent US7850981B2, “Immuno-adjuvant PDT treatment of metastatic tumors” (QLT, Inc., priority 1999, dated 2010).
Marks after values point to notes of the source that are not given here.

Tests used:
[1] = test system: M1 (rhabdomyosarcoma); assay: Reimplantation of M1 tumor on Day 20 into tumor-free mice treated with PDT (verteporfin 1.0 mg/kg i.v. + light) with or without DETOX B-SE; format: in vivo; conditions: for Survival (tumour less than 1 cm long, not euthanized) / Tumor-take Rate: reimplanted Day 20
Source text: The thirty mice in treatment group 7 were implanted at the same time as those reimplanted on Groups 1-6 to provide a control for the rate of tumor-take. Ten mice were implanted on each of three separate batches of 10 mice to match the days of reimplantation of 1-6.
High dose PDT gave approximately 60% fewer tumors (n=9), and this percentage was not changed by the addition of high dose immunoadjuvant (n=5). The lower dose of immunoadjuvant combined with high dose PDT gave more protection against rechallenge (20% take rate, n=6).

[2] = test system: B16-F1 melanoma; assay: B16-F1 melanoma: PDT (verteporfin 1.0 mg/kg i.v., 100 J/cm^2) with or without intratumoral TITERMAX, then experimental pulmonary metastases; format: in vivo, C57BL/6 mice
Protocol: Male, C57BL/6 mice were obtained from Charles River Canada (Montreal, QC) at 6 to 8 weeks of age. The B 16-F0 and B 16-F1 melanoma cell lines were obtained from the […] (ATC™) (Manassas, Va.) and grown as cell cultures in Dulbecco's Modified Eagle Medium (DMEM) (Gibco) supplemented with 10% fetal bovine serum (Sigma). The cells adhered to tissue culture plates, were removed for passage with 0.25% trypsin with 1.0 mM ethylenediaminetetraacetic acid (EDTA) (Gibco), and were cryo-preserved in liquid nitrogen in DMEM plus 40% FBS and 10% DMSO. Mice were injected with 5×10^5 tumor cells in a total volume of 50 μL subcutaneously into the shaved, right flank. The tumor size was monitored daily by measuring the diameter with vernier calipers and were treated when the tumors reached approximately 5 mm in diameter. […] Subsequently the B16-F1 cell line was used for all experiments.
PDT treatment of mice bearing the B16-F1 tumor was performed as previously described for the M1 rhabdomyosarcoma mouse tumor (Richter et al., 1987; Richter et al., 1988; Richter et al., 1991). Each mouse was weighed, warmed under infrared light for less than 5 min to dilate the blood vessels, restrained, and injected intravenously (tail vein) with verteporfin at a concentration of 1.0 mg/kg body weight using a 28G needle. […] Following treatment, animals were monitored daily for tumor response. […]

[3] = Optimal PDT (75 J/cm^2), n = 9, day 23 post-PDT
[4] = Optimal PDT (75 J/cm^2), n = 9, day 26 post-PDT
[5] = Optimal PDT (75 J/cm^2), n = 9, day 29 post-PDT
[6] = Optimal PDT (75 J/cm^2), n = 9, day 32 post-PDT
[7] = Optimal PDT (75 J/cm^2), n = 9, day 35 post-PDT
[8] = Optimal PDT (75 J/cm^2), n = 9, day 38 post-PDT
[9] = Optimal PDT (75 J/cm^2), n = 9, day 41 post-PDT
[10] = Optimal PDT (75 J/cm^2), n = 9, day 44 post-PDT
[11] = Optimal PDT (75 J/cm^2), n = 9, day 47 post-PDT
[12] = Optimal PDT (75 J/cm^2), n = 9, day 50 post-PDT
[13] = Sub-optimal PDT (25 J/cm^2), n = 7, day 23 post-PDT
[14] = Sub-optimal PDT (25 J/cm^2), n = 7, day 26 post-PDT
[15] = Sub-optimal PDT (25 J/cm^2), n = 7, day 29 post-PDT
[16] = Sub-optimal PDT (25 J/cm^2), n = 7, day 32 post-PDT
[17] = Sub-optimal PDT (25 J/cm^2), n = 7, day 35 post-PDT
[18] = Sub-optimal PDT (25 J/cm^2), n = 7, day 38 post-PDT
[19] = Sub-optimal PDT (25 J/cm^2), n = 7, day 41 post-PDT
[20] = Sub-optimal PDT (25 J/cm^2), n = 7, day 44 post-PDT
[21] = Sub-optimal PDT (25 J/cm^2), n = 7, day 47 post-PDT
[22] = Sub-optimal PDT (25 J/cm^2), n = 7, day 50 post-PDT

benzoporphyrin derivative monoacid ring A [verteporfin]
fewer tumors upon reimplantation than in untreated naïve mice ([1]; High dose PDT (75 J/cm^2), n=9): approximately 60%
protection against rechallenge relative to controls ([1]; Low dose PDT alone (25 J/cm^2), superior to low dose PDT combined with low-dose adjuvant): substantial protection
Survival (tumour less than 1 cm long, not euthanized) [1, 3]: 100%
Tumor-take Rate [1, 3]: 0%
Survival (tumour less than 1 cm long, not euthanized) [1, 4]: 100%
Tumor-take Rate [1, 4]: 44^d %
Survival (tumour less than 1 cm long, not euthanized) [1, 5]: 100%
Tumor-take Rate [1, 5]: 44^c %
Survival (tumour less than 1 cm long, not euthanized) [1, 6]: 100%
Tumor-take Rate [1, 6]: 44^c %
Survival (tumour less than 1 cm long, not euthanized) [1, 7]: 89^c %
Tumor-take Rate [1, 7]: 44^c %
Survival (tumour less than 1 cm long, not euthanized) [1, 8]: 89%
Tumor-take Rate [1, 8]: 44^c %
Survival (tumour less than 1 cm long, not euthanized) [1, 9]: 89%
Tumor-take Rate [1, 9]: 44^c %
Survival (tumour less than 1 cm long, not euthanized) [1, 10]: 78%
Tumor-take Rate [1, 10]: 44^c %
Survival (tumour less than 1 cm long, not euthanized) [1, 11]: 56%
Tumor-take Rate [1, 11]: 44^c %
Survival (tumour less than 1 cm long, not euthanized) [1, 12]: 56%
Tumor-take Rate [1, 12]: 44^c %
Survival (tumour less than 1 cm long, not euthanized) [1, 13]: 100%
Tumor-take Rate [1, 13]: 0%
Survival (tumour less than 1 cm long, not euthanized) [1, 14]: 100%
Tumor-take Rate [1, 14]: 43%
Survival (tumour less than 1 cm long, not euthanized) [1, 15]: 100%
Tumor-take Rate [1, 15]: 43%
Survival (tumour less than 1 cm long, not euthanized) [1, 16]: 100%
Tumor-take Rate [1, 16]: 43%
Survival (tumour less than 1 cm long, not euthanized) [1, 17]: 100%
Tumor-take Rate [1, 17]: 43%
Survival (tumour less than 1 cm long, not euthanized) [1, 18]: 100%
Tumor-take Rate [1, 18]: 43%
Survival (tumour less than 1 cm long, not euthanized) [1, 19]: 100%
Tumor-take Rate [1, 19]: 29%
Survival (tumour less than 1 cm long, not euthanized) [1, 20]: 86%
Tumor-take Rate [1, 20]: 29%
Survival (tumour less than 1 cm long, not euthanized) [1, 21]: 86%
Tumor-take Rate [1, 21]: 29%
Survival (tumour less than 1 cm long, not euthanized) [1, 22]: 86%
Tumor-take Rate [1, 22]: 29%
animals that required repeated treatment to complete the tumor cure ([2]; of five animals per group, subcutaneous B16-F1 tumor): 3
lung colonies ([2]; one of the 5 animals treated with PDT alone, 14 days after i.v. tumor cells): 6
